Patent US20090257999A1, “Method of preventing contrast-induced nephropathy” (Inotek Pharmaceuticals Corporation, priority 2007, published 2009)

What was measured:
Type in all cases: in vivo, rat
[1] = system: diabetic rats; assay: Histologic evaluation of kidney outer medulla damage, Example 1; conditions: at 96 hours
Description: (§1) Experimental model for assessing the effects of Metalloporphyrin A on CIN: Diabetic (n=8) for group #'s 1-9 or wild-type rats (n=10) for group #'s 10 and 11 were treated with drug 60 min prior to contrast agent administration. At the “0” time point, Iomeprol was administered with ensuing drug intervention dosing every 12 hours for Metalloporphyrin A from 24-84 hours or every 24 hours for NAC from 24-72 hours. At the 96 hour time point, kidneys were harvested for histopathology, MPO and MDA measurements. From 0-96 hours, plasma samples from all animals per group were screened for urea, creatinine, fractional excretion of Na^+ and NGAL.
At postmortem, a […] section of kidney was removed and placed in formalin and processed through to wax. […] sections were cut and stained with hematoxylin and eosin. Histologic assessment of tubular necrosis was determined semi-quantitatively using a method modified from McWhinnie et al, Transplantation. 42(4):352-81986, 1986.
Histologic assessment of outer medulla damage was examined by an experienced morphologist, who was not aware of the sample identity. […]

[2] = system: diabetic rats; assay: CIN model, Example 5: INO-1001 alone and with NAC in diabetic rats; conditions: diabetic rats + Iomeprol, NAC 30 mg/kg i.v., INO-1001 10 mg/kg ip, or both, at −30 min
Description: Male Wistar rats (150-200 g; Harlan Nossanr) were housed in a controlled environment and provided with standard rodent chow and water. Diabetes was induced after 12 h of fasting. The animals received a single 60 mg/kg intravenous (i.v.) injection of streptozotocin (Sigma, St. Louis, Mo.) in 10 mM sodium citrate buffer, pH 4.5 (see figure). Control non-diabetic animals were fasted and received citrate buffer alone. After 24 hours, animals with blood glucose levels greater than 250 mg/dl were considered diabetic. The diabetic state was confirmed by evaluating the blood glucose levels. Ten days following the induction of diabetes rats were anesthetized with 90 mg/kg ketamine i.m. and 10 mg/kg xylazine i.m. and were treated with the contrast agent iomeprol (10 mL/kg injected via the lateral tail vein) or with 0.9% normal saline. The contrast agent used was the low osmolar non-ionic monomer iomeprol (Iomeron, 400 mgI mL-1; Bracco SpA, Milan, Italy) with an osmolality of 726±34 mosmol/kg H2O.
GROUP 1: Diabetic rats only+Placebo (i.v.). GROUP 2: Diabetic rats+Iomeprol+Placebo (i.v.) given at −30 min. GROUP 3: Diabetic rats+Iomeprol+NAC (30 mg/kg, i.v.) given at −30 min. GROUP 4: Diabetic rats+Iomeprol+INO-1001 (10 mg/kg, ip) given at −30 min. GROUP 5: Diabetic rats+Iomeprol+NAC (30 mg/kg, i.v.)+INO-1001 (10 mg/kg, ip) given at −30 min.
Blood samples were collected via the lateral tail vein into S1/3 tubes containing serum gel at 24 hours. The samples were centrifuged (6000 r.p.m. for 3 min) to separate plasma. All plasma samples were analyzed for biochemical parameters within 24 hours after collection. Plasma and urine concentrations of creatinine were measured as indicators of impaired glomerular function. Creatinine clearance was calculated using the following formula (=UV/P), where U refers to Creatinine concentration in urine, V to urine volume/min and P to serum creatinine. Plasma and urine concentrations of NGAL (neutrophil gelatinase associated lipocalin) levels and urine αGST (alpha glutathione S-transferase) and NGAL levels were evaluated.
Protein concentration in urine was determined by Bio-Rad DC Protein Assay (BioRad, Richmond Calif.). The Bio-Rad DC protein assay is a colorimetric assay for protein concentration. The reaction is similar to the well-documented Lowry assay (Lowry et al., Protein measurement with the Folin phenol reagent, J Biol Chem 193, 265-275 (1951). The Bio-Rad DC protein assay requires only a single 15-minute incubation, and absorbance is stable for a least 2 hours. The amount of protein is expressed in mg/ml.

[3] = system: ICAM-1, Nitrotyrosine and PAR expression; assay: Immunohistochemical localization of ICAM-1, nitrotyrosine and poly(ADP-ribose) in kidney, Example 1; conditions: diabetic rats + Iomeprol; metalloporphyrin A 1 mg/kg 60 min prior to Iomeprol, or NAC 10 mg/kg
Description: as §1
Rat kidneys fixed in 10% (wt/vol) neutral buffered paraformaldehyde and […] sections were prepared from paraffin-embedded tissues. After deparaffination, endogenous peroxidase was quenched using 0.3% (vol/vol) H2O2 in 60% methanol for 30 minutes. The sections were permeabilized using 0.1% (wt/vol) Triton X-100 in phosphate-buffered saline (PBS; 0.01 mol/L, pH 7.4) for 20 minutes. Nonspecific adsorption was minimized by incubating sections in 2% (vol/vol) normal goat serum in PBS for 20 minutes. Endogenous avidin- and biotin-binding sites were blocked by sequential incubation for 15 minutes with avidin (DBA, Milan, Italy) and biotin (DBA, Milan, Italy), respectively. The sections were then incubated overnight with primary antinitrotyrosine antibody (1:1000), anti-PAR antibody (1:500) and anti-ICAM-1 antibody (1:500). Separate sections were also incubated with control solutions consisting of PBS alone or a 1:500 dilution of nonspecific purified rabbit IgG (DBA). Specific labeling was detected using a biotin-conjugated goat antirabbit IgG (DBA) and avidin-biotin peroxidase (DBA). Samples were then viewed under a light microscope.

[4] = system: malondialdehyde (MDA) in kidneys; assay: Kidney malondialdehyde (MDA) levels, Example 1; conditions: at 96 hours
Description: as §1
Levels of malondialdehyde (MDA) in kidneys were determined as an indicator of lipid peroxidation following a protocol described previously (Davenport et. al. Clin. Transplant. 9 (3 Pt 1):171-51995).
Kidney tissue was weighed and homogenized in a 1.15% (wt/vol) KCl solution. A […] aliquot of homogenate was then removed and added to a reaction mixture containing […] 8.1% (wt/vol) lauryl sulfate, 1.5 mL 20% (vol/vol) acetic acid (pH 3.5), 1.5 mL 0.8% (wt/vol) thiobarbituric acid, and 700 mL distilled water. Samples were then boiled for one hour at 95° C. and centrifuged at 3000 g for 10 minutes. The absorbance of the supernatant was measured spectrophotometrically at […]. MDA levels were expressed as μM/100 mg wet tissue.

[5] = diabetic rats + i.v. Iomeprol, Metalloporphyrin A 30-1000 μg/kg or NAC 10 mg/kg i.p.
[6] = diabetic rats + i.v. saline (no contrast agent), Metalloporphyrin A 1000 μg/kg or NAC 10 mg/kg i.p.

SMILES: CC(=O)N[C@@H](CS)C(=O)O [NAC, N-acetylcysteine]
- kidney injury (histological score) [1, 5]: significant reductions
- kidney injury (histological score) [1, 6]: significantly reduced
- plasma creatinine ([2]; 24 h): significant reductions
- plasma NGAL concentration ([2]; 24 hours): significant reductions
- total protein concentration in the urine ([2]; 24 hours): significant reductions
- urine NGAL concentration ([2]; 24 hours): significant reductions
- urine αGST ([2]; 24 hours): significant reductions
- ICAM-1 staining/expression in kidney medulla [3]: afforded protection
- Nitrotyrosine staining/expression in kidney medulla [3]: afforded protection
- PAR staining/expression in kidney medulla [3]: afforded protection
- MDA levels in the kidney [4, 5]: significant reductions
- MDA levels in the kidney [4, 6]: significantly reduced the increase
